# Measurements as given in US9193719B2, “1,2,4-triazol-5-ones and analogs exhibiting anti-cancer and anti-proliferative activities” (Deciphera Pharmaceuticals, LLC, priority 2013, dated 2015).
# How the values were obtained:
# [1] = target: T1, unphosphorylated PDGFRβ kinase (uPDGFRβ, Seq. ID No. 3) (Homo sapiens, UniProt P09619); test: uPDGFRβ kinase enzymatic assay (pyruvate kinase/lactate dehydrogenase coupled); assay type: biochemical; conditions: ATP 500 μM, rate 1.5 to 2.5 h
# T1 construct: purchased DeCode
# Method in brief: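 Unphosphorylated PDGFRβ (15.7 nM) with 500 μM ATP and poly E4Y (2.5 mg/mL) in Tris pH 7.5, 0.2% octyl-glucoside, 1% DMSO; ADP coupled via PK/LDH to NADH oxidation at A340, read continuously 4 h at 30 °C. Rates from 1.5–2.5 h window versus no-compound control gave IC50.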
# [2] = system: phospho-FMS in THP-1 cells; test: Phospho-FMS ELISA assay in THP-1 cells; assay type: cell-based; conditions: Homo sapiens, 4 h compound, M-CSF stimulation 5 min, read-out: pFMS inhibition in THP-1 cells
# Description: THP-1 cells (catalog #TIB-202) were obtained from the ATCC. Briefly, cells were grown in RPMI 1640 supplemented with 10% characterized fetal bovine serum, 1% sodium pyruvate, 1% Penicillin-Streptomycin-Glutamine (PSG) and 55 uM 2-mercaptoethanol (Invitrogen, Carlsbad, Calif.) at 37 degrees Celsius, 5% CO2, 95% humidity. Cells were allowed to expand until reaching 70-95% confluency at which point they were subcultured or harvested for assay use.
# A serial dilution of test compound was diluted 1:100 in assay medium (RPMI 1640 supplemented with 10% characterized fetal bovine serum) in a 96 well black clear bottom plate (Corning, Corning, N.Y.). In a separate 96 well black clear bottom plate, one hundred and fifty thousand THP-1 cells were added per well in 100 μL in assay medium. Fifty microliters of diluted compound was then added to the cells. Plates were incubated for 4 hours at 37 degrees Celsius, 5% CO2, 95% humidity. At the end of the incubation period, cells were stimulated with 50 μL of a 100 nM solution of recombinant human M-CSF (catalog #216-MC, R & D Systems, Minneapolis, Minn.) in assay medium and the plate was incubated for 5 minutes at 37 degrees Celsius, 5% CO2, 95% humidity. Lysates were prepared and used to perform the phospho-FMS ELISA as described by the manufacturer (catalog #DYC3268, R & D Systems, Minneapolis, Minn.). GraphPad Prism was used to calculate IC50 values obtained from data generated from the ELISA assay.
# [3] = target: T2, unphosphorylated c-FMS kinase (uFMS, Seq. ID no. 1) (Homo sapiens, UniProt P07333); test: uFMS kinase enzymatic assay (pyruvate kinase/lactate dehydrogenase coupled); assay type: biochemical; conditions: ATP 500 μM, rate 3 to 4 h
# T2 construct: purchased Millipore
# T2 sequence (P07333 538-972): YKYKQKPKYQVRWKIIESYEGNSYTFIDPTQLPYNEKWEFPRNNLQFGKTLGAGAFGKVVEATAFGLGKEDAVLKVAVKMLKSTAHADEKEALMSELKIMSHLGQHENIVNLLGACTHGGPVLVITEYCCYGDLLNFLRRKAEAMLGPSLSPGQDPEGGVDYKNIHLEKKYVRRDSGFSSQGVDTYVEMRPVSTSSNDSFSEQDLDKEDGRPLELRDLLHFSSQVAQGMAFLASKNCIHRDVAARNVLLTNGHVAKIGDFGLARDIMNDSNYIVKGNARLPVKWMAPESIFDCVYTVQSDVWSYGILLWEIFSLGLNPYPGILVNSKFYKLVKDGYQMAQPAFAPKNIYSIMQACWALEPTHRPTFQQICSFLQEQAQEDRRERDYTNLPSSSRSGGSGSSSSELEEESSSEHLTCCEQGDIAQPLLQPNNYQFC
# Method in brief: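 Coupled PK/LDH assay following NADH oxidation at A340 with 10 nM unphosphorylated FMS, 1 mg/mL polyE4Y, 500 μM ATP in 90 mM Tris pH 7.5, 0.2% octyl-glucoside, 1% DMSO. Read continuously 4 h at 30 °C; rate from 3–4 h window versus no-compound control; IC50 from percent-inhibition series.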
# osteoclast precursors = test: Osteoclast tartrate-resistant acid phosphatase assay; assay type: cell-based; conditions: RANKL and M-CSF, 7-14 days, tartrate-resistant acid phosphatase activity
# T1 sequence (P09619 557-1106): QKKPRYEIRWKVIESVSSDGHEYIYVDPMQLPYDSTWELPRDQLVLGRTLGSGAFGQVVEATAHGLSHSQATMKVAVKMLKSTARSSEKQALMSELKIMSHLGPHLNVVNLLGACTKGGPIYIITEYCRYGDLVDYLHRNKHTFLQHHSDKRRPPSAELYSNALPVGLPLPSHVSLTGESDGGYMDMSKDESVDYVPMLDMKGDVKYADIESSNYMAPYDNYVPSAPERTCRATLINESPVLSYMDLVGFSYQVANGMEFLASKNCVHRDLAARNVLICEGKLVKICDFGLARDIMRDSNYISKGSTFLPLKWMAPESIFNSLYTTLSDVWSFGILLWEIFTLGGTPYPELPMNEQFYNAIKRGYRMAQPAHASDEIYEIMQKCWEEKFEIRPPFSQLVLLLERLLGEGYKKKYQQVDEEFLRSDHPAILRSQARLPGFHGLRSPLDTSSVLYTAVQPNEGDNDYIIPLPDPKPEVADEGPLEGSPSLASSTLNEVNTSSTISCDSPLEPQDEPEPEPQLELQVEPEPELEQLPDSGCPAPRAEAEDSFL
Compound,IC50 [1] [nM],IC50 [2] [nM],IC50 [3] [nM],IC50 (osteoclast precursors) [nM]
"CCC(C)(C)c1nn(-c2ccc(Oc3ccnc(-c4cnn(C)c4)c3)c(C)n2)c(=O)[nH]1 [Example 25, 1-(6-methyl-5-((2-(1-methyl-1H-pyrazol-4-yl)pyridin-4-yl)oxy)pyridin-2-yl)-3-(tert-pentyl)-1H-1,2,4-triazol-5(4H)-one]",> 1000,10 to 100,≤ 10,10 to 100
"Cc1nc(-n2nc(C3(C)CC3)[nH]c2=O)ccc1Oc1ccnc(-c2cnn(C)c2)c1 [Example 27, 1-(6-methyl-5-((2-(1-methyl-1H-pyrazol-4-yl)pyridin-4-yl)oxy)pyridin-2-yl)-3-(1-methylcyclopropyl)-1H-1,2,4-triazol-5(4H)-one]",> 1000,10 to 100,≤ 10,10 to 100
"Cc1nc(-n2nc(C(C)(C)C)[nH]c2=O)ccc1Oc1ccnc(NC(=O)N(C)C)c1 [Example 30, 3-(4-((6-(3-(tert-butyl)-5-oxo-4,5-dihydro-1H-1,2,4-triazol-1-yl)-2-methylpyridin-3-yl)oxy)pyridin-2-yl)-1,1-dimethylurea]",> 1000,100 to 1000,10 to 100,10 to 100
"Cc1cc(-n2nc(C(C)(C)C)[nH]c2=O)ncc1Oc1ccnc(-c2cnn(C)c2)c1 [Example 31, 3-(tert-butyl)-1-(4-methyl-5-((2-(1-methyl-1H-pyrazol-4-yl)pyridin-4-yl)oxy)pyridin-2-yl)-1H-1,2,4-triazol-5(4H)-one]",100 to 1000,10 to 100,≤ 10,10 to 100
"Cc1cc(-n2nc(C(C)(C)C)[nH]c2=O)nc(C)c1Oc1ccnc(-c2cnn(C)c2)c1 [Example 33, 3-(tert-butyl)-1-(4,6-dimethyl-5-((2-(1-methyl-1H-pyrazol-4-yl)pyridin-4-yl)oxy)pyridin-2-yl)-1H-1,2,4-triazol-5(4H)-one]",100 to 1000,10 to 100,10 to 100,100 to 1000
"Cc1nc(-n2nc(CC(C)(C)C)[nH]c2=O)ccc1Oc1ccnc(-c2cnn(C)c2)c1 [Example 36, 1-(6-methyl-5-((2-(1-methyl-1H-pyrazol-4-yl)pyridin-4-yl)oxy)pyridin-2-yl)-3-neopentyl-1H-1,2,4-triazol-5(4H)-one]",100 to 1000,10 to 100,≤ 10,10 to 100
"Cc1nc(-n2nc(C3CCC3)[nH]c2=O)ccc1Oc1ccnc(-c2cnn(C)c2)c1 [Example 37, 3-cyclobutyl-1-(6-methyl-5-((2-(1-methyl-1H-pyrazol-4-yl)pyridin-4-yl)oxy)pyridin-2-yl)-1H-1,2,4-triazol-5(4H)-one]",100 to 1000,≤ 10,≤ 10,≤ 10
"CCn1cc(-c2cc(Oc3ccc(-n4nc(C(C)(C)C)[nH]c4=O)nc3C)ccn2)cn1 [Example 38, 3-(tert-butyl)-1-(5-((2-(1-ethyl-1H-pyrazol-4-yl)pyridin-4-yl)oxy)-6-methylpyridin-2-yl)-1H-1,2,4-triazol-5(4H)-one]",> 1000,100 to 1000,≤ 10,10 to 100
"Cc1nc(-n2nc(C(C)(C)C)[nH]c2=O)ccc1Oc1ccnc(-c2cnco2)c1 [Example 39, 3-(tert-butyl)-1-(6-methyl-5-((2-(oxazol-5-yl)pyridin-4-yl)oxy)pyridin-2-yl)-1H-1,2,4-triazol-5(4H)-one]",> 1000,100 to 1000,10 to 100,10 to 100
"Cc1nc(-n2nc(C3(C(F)(F)F)CCC3)[nH]c2=O)ccc1Oc1ccnc(-c2cnn(C)c2)c1 [Example 43, 1-(6-methyl-5-((2-(1-methyl-1H-pyrazol-4-yl)pyridin-4-yl)oxy)pyridin-2-yl)-3-(1-(trifluoromethyl)cyclobutyl)-1H-1,2,4-triazol-5(4H)-one]",100 to 1000,100 to 1000,≤ 10,10 to 100
"COCC(C)(C)c1nn(-c2ccc(Oc3ccnc(-c4cnn(C)c4)c3)c(C)n2)c(=O)[nH]1 [Example 46, 3-(1-methoxy-2-methylpropan-2-yl)-1-(6-methyl-5-((2-(1-methyl-1H-pyrazol-4-yl)pyridin-4-yl)oxy)pyridin-2-yl)-1H-1,2,4-triazol-5(4H)-one]",> 1000,100 to 1000,10 to 100,10 to 100
"Cc1nc(-n2nc(C(C)(C)C)[nH]c2=O)ccc1Oc1cc(-c2cnn(C)c2)ncn1 [Example 47, 3-(tert-butyl)-1-(6-methyl-5-((6-(1-methyl-1H-pyrazol-4-yl)pyrimidin-4-yl)oxy)pyridin-2-yl)-1H-1,2,4-triazol-5(4H)-one]",> 1000,10 to 100,10 to 100,10 to 100
"Cc1nc(-n2cc(C(C)(C)C)[nH]c2=O)ccc1Oc1ccnc(-c2cnn(C)c2)c1 [Example 48, 4-(tert-butyl)-1-(6-methyl-5-((2-(1-methyl-1H-pyrazol-4-yl)pyridin-4-yl)oxy)pyridin-2-yl)-1H-imidazol-2(3H)-one]",> 1000,10 to 100,10 to 100,10 to 100
"Cc1nc(-n2nc(C(C)(C)C)oc2=O)ccc1Oc1ccnc(-c2cnn(C)c2)c1 [Example 49, 5-(tert-butyl)-3-(6-methyl-5-((2-(1-methyl-1H-pyrazol-4-yl)pyridin-4-yl)oxy)pyridin-2-yl)-1,3,4-oxadiazol-2(3H)-one]",> 1000,10 to 100,10 to 100,10 to 100
